{"source": "patent US20240067654A1", "about": "(Kinoxis Therapeutics Pyt Ltd, priority 2020, published 2024)", "key": {"[1]": {"target": "T1, OTR (Homo sapiens, UniProt P30559)", "T1 sequence (P30559 1-389)": "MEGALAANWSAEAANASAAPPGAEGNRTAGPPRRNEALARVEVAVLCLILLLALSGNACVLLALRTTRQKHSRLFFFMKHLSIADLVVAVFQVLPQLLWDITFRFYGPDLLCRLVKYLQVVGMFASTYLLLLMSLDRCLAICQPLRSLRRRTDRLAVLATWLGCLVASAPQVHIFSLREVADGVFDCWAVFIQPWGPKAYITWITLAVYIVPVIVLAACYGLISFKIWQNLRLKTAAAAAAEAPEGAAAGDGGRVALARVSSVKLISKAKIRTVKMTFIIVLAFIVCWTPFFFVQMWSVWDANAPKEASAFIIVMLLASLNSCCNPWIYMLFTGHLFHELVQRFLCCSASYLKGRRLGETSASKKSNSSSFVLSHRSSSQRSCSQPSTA", "assay": "Modulation of oxytocin-evoked intracellular IP1 and Ca2+ increase: OT dose-response in presence and absence of 10 μM compound", "conditions": "for change in OT potency seen in OT dose-response curves (figure legend): 10 μM of compound; for Relative Potency: OT potency with 10 μM compound relative to OT only", "experimental": "These assays were performed using commercial kits (IP1 HTRF from Cisbio and Fluo-4AM from Invitrogen), according to the manufacturer's protocol."}, "[2]": {"target": "T1, OTR", "assay": "Tritiated OT (3H-OT) displacement", "type": "binding", "parameters": "expressed in transfected cells; host or cells: HEK cells, Flp-In TREX system (Invitrogen)", "conditions": "Kd concentration of 3H-OT; compound at a concentration up to 10 μM"}, "[3]": {"target": "T1, OTR", "assay": "Calcium (Ca2+) influx induced by OT in the presence of various concentrations of compound 3 (HEK assay)", "type": "cell-based", "parameters": "expressed in transfected cells; host or cells: HEK cells, Flp-In TREX system (Invitrogen)"}, "[4]": {"target": "human V1aR (Homo sapiens, UniProt P37288)", "sequence (P37288 whole entry)": "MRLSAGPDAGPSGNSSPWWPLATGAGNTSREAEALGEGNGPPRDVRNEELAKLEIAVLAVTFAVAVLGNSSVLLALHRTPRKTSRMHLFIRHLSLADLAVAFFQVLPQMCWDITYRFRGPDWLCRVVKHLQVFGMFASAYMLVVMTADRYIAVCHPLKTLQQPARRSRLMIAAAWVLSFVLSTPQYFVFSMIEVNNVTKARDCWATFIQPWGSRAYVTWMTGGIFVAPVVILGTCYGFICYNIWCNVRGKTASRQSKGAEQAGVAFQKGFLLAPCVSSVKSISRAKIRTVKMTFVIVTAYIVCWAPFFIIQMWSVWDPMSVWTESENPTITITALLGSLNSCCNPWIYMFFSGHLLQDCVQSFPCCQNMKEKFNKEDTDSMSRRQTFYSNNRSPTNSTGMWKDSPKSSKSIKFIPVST", "conditions": "cited from earlier work"}, "[5]": {"conditions": "in vivo; cited from earlier work"}, "[6]": {"conditions": "rat, in vivo; cited from earlier work"}, "[7]": {"target": "rat V1aR (Rattus norvegicus, UniProt P30560)", "sequence (P30560 whole entry)": "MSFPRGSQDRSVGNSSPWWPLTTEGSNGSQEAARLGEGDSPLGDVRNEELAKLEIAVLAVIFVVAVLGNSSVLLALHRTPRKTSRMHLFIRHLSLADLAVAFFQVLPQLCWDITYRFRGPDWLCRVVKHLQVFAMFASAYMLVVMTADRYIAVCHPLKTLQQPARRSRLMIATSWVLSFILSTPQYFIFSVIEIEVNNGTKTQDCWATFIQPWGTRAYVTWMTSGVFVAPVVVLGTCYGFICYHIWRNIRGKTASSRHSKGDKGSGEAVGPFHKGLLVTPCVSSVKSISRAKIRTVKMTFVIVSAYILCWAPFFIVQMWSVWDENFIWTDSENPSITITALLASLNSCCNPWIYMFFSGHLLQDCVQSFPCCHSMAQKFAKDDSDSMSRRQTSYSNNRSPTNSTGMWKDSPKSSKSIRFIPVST", "conditions": "cited from earlier work"}}, "data": [{"smiles": "Cn1ncc2c1c1ccccc1n2C(=O)c1ccccc1", "note": "[Compound 1]", "values": [{"measurement": "melting point", "value": "152.6 to 153.2", "unit": "°C"}, {"measurement": "change in OT potency seen in OT dose-response curves (figure legend)", "setting": "[1]", "value": "improvement in OT potency"}, {"measurement": "Relative Potency", "setting": "[1]; Table 2 group", "value": 10.4}, {"measurement": "displacement of the binding of 3H-OT", "setting": "[2]", "value": "None of compounds 1, 2 or 3 displaced ^3H-OT"}]}, {"smiles": "Cn1ncc2c1c1ccccc1n2C(=O)c1cccc(F)c1", "note": "[Compound 2]", "values": [{"measurement": "melting point", "value": "91.1 to 92.8", "unit": "°C"}, {"measurement": "change in OT potency seen in OT dose-response curves (figure legend)", "setting": "[1]", "value": "improvement in OT potency"}, {"measurement": "Relative Potency", "setting": "[1]; Table 2 group", "value": 8.4}, {"measurement": "displacement of the binding of 3H-OT", "setting": "[2]", "value": "None of compounds 1, 2 or 3 displaced ^3H-OT"}]}, {"smiles": "Cn1ncc2c1c1ccccc1n2C(=O)C1CCCCC1", "note": "[Compound 3]", "values": [{"measurement": "melting point", "value": "140.3 to 141.2", "unit": "°C"}, {"measurement": "change in OT potency seen in OT dose-response curves (figure legend)", "setting": "[1]", "value": "improvement in OT potency"}, {"measurement": "Relative Potency", "setting": "[1]; Table 2 group", "value": 5.5}, {"measurement": "Relative Potency", "setting": "[3]; OT + 0.01 μM compound 3, relative to 0 μM", "value": 0.64}, {"measurement": "Relative Potency", "setting": "[3]; OT + 0.03 μM compound 3, relative to 0 μM", "value": 0.47}, {"measurement": "Relative Potency", "setting": "[3]; OT + 0.3 μM compound 3, relative to 0 μM", "value": 2.83}, {"measurement": "Relative Potency", "setting": "[3]; OT + 1 μM compound 3, relative to 0 μM", "value": 3.90}, {"measurement": "Relative Potency", "setting": "[3]; OT + 10 μM compound 3, relative to 0 μM", "value": 19.0}, {"measurement": "displacement of the binding of 3H-OT", "setting": "[2]", "value": "None of compounds 1, 2 or 3 displaced ^3H-OT"}]}, {"smiles": "Cc1ccc(C(=O)n2c3ccccc3c3c2cnn3C)cc1", "note": "[Compound 4]", "values": [{"measurement": "melting point", "value": "167 to 169", "unit": "°C"}, {"measurement": "change in OT potency seen in OT dose-response curves (figure legend)", "setting": "[1]", "value": "improvement in OT potency"}, {"measurement": "Relative Potency", "setting": "[1]; Table 3 group", "value": 2.9}]}, {"smiles": "Cn1ncc2c1c1ccccc1n2C(=O)c1ccc(Cl)cc1", "note": "[Compound 5]", "values": [{"measurement": "melting point", "value": "145 to 147", "unit": "°C"}, {"measurement": "change in OT potency seen in OT dose-response curves (figure legend)", "setting": "[1]", "value": "improvement in OT potency"}, {"measurement": "Relative Potency", "setting": "[1]; Table 3 group", "value": 3.1}]}, {"smiles": "Cn1ncc2c1c1ccccc1n2C(=O)c1ccc(Cl)c(Cl)c1", "note": "[Compound 6]", "values": [{"measurement": "melting point", "value": "142 to 143", "unit": "°C"}, {"measurement": "change in OT potency seen in OT dose-response curves (figure legend)", "setting": "[1]", "value": "improvement in OT potency"}, {"measurement": "Relative Potency", "setting": "[1]; Table 3 group", "value": 2.9}]}, {"smiles": "COc1ccc(C(=O)n2c3ccccc3c3c2cnn3C)cc1", "note": "[Compound 7]", "values": [{"measurement": "melting point", "value": "136 to 138", "unit": "°C"}, {"measurement": "change in OT potency seen in OT dose-response curves (figure legend)", "setting": "[1]", "value": "improvement in OT potency"}, {"measurement": "Relative Potency", "setting": "[1]; Table 7 group", "value": 2.1}]}, {"smiles": "Cn1ncc2c1c1ccccc1n2C(=O)c1ccc(F)cc1", "note": "[Compound 10]", "values": [{"measurement": "change in OT potency seen in OT dose-response curves (figure legend)", "setting": "[1]", "value": "improvement in OT potency"}, {"measurement": "Relative Potency", "setting": "[1]; Table 7 group", "value": 2.5}]}, {"smiles": "Cn1ncc2c1c1ccccc1n2C(=O)C1CCCC1", "note": "[Compound 12]", "values": [{"measurement": "change in OT potency seen in OT dose-response curves (figure legend)", "setting": "[1]", "value": "improvement in OT potency"}, {"measurement": "Relative Potency", "setting": "[1]; Table 4 group", "value": 2.3}]}, {"smiles": "Cn1ncc2c1c1ccccc1n2C(=O)C1CCCCCC1", "note": "[Compound 13]", "values": [{"measurement": "change in OT potency seen in OT dose-response curves (figure legend)", "setting": "[1]", "value": "improvement in OT potency"}, {"measurement": "Relative Potency", "setting": "[1]; Table 4 group", "value": 2.5}]}, {"smiles": "CCCCC(=O)n1c2ccccc2c2c1cnn2C", "note": "[Compound 14]", "values": [{"measurement": "change in OT potency seen in OT dose-response curves (figure legend)", "setting": "[1]", "value": "improvement in OT potency"}, {"measurement": "Relative Potency", "setting": "[1]; Table 7 group", "value": 2.6}]}, {"smiles": "Cn1ncc2c1c1ccccc1n2C(=O)C1CCOCC1", "note": "[Compound 16]", "values": [{"measurement": "change in OT potency seen in OT dose-response curves (figure legend)", "setting": "[1]", "value": "improvement in OT potency"}, {"measurement": "Relative Potency", "setting": "[1]; Table 7 group", "value": 2.6}]}, {"smiles": "Cn1ncc2c1c1ccccc1n2C(=O)C12CC3CC(CC(C3)C1)C2", "note": "[Compound 23]", "values": [{"measurement": "change in OT potency seen in OT dose-response curves (figure legend)", "setting": "[1]", "value": "improvement in OT potency"}, {"measurement": "Relative Potency", "setting": "[1]; Table 4 group", "value": 3.4}]}, {"smiles": "Cn1ncc2c1c1ccccc1n2C(=O)c1cccc2ncccc12", "note": "[Compound 29]", "values": [{"measurement": "change in OT potency seen in OT dose-response curves (figure legend)", "setting": "[1]", "value": "improvement in OT potency"}, {"measurement": "Relative Potency", "setting": "[1]; Table 8 group, n = 2", "value": 2.8}]}, {"smiles": "Cn1ncc2c3ccccc3n(C(=O)c3ccccc3)c21", "note": "[Compound 31]", "values": [{"measurement": "Relative Potency", "setting": "[1]; Table 5 group", "value": 5.0}]}, {"smiles": "Cn1ncc2c3ccccc3n(C(=O)c3cccc(F)c3)c21", "note": "[Compound 32]", "values": [{"measurement": "Relative Potency", "setting": "[1]; Table 5 group", "value": 3.4}]}, {"smiles": "Cn1ncc2c3ccccc3n(C(=O)C3CCCCC3)c21", "note": "[Compound 33]", "values": [{"measurement": "Relative Potency", "setting": "[1]; Table 5 group", "value": 3.7}]}, {"smiles": "Cn1ccc2c1c1ccccc1n2C(=O)C1CCCCC1", "note": "[Compound 35]", "values": [{"measurement": "change in OT potency seen in OT dose-response curves (figure legend)", "setting": "[1]", "value": "improvement in OT potency"}, {"measurement": "Relative Potency", "setting": "[1]; Table 9 group", "value": 3.7}]}, {"smiles": "Cn1ncc2c1c1ccccc1n2C(=O)N1CCCCC1", "note": "[Compound 42]", "values": [{"measurement": "change in OT potency seen in OT dose-response curves (figure legend)", "setting": "[1]", "value": "improvement in OT potency"}, {"measurement": "Relative Potency", "setting": "[1]; Table 6 group", "value": 2.3}]}, {"smiles": "Cn1ncc2c1c1ccccc1n2S(=O)(=O)C1CCCCC1", "note": "[Compound 43]", "values": [{"measurement": "change in OT potency seen in OT dose-response curves (figure legend)", "setting": "[1]", "value": "improvement in OT potency"}, {"measurement": "Relative Potency", "setting": "[1]; Table 6 group", "value": 2.6}]}, {"smiles": "CC[C@H](C)[C@@H]1NC(=O)[C@H](Cc2ccc(O)cc2)NC(=O)[C@@H](N)CSSC[C@@H](C(=O)N2CCC[C@H]2C(=O)N[C@@H](CC(C)C)C(=O)NCC(N)=O)NC(=O)[C@H](CC(N)=O)NC(=O)[C@H](CCC(N)=O)NC1=O", "note": "[OT, Oxytocin]", "values": [{"measurement": "affinity of OT at V1aR", "setting": "[4]", "value": 120, "unit": "nM"}, {"measurement": "fraction of intranasal OT that enters the brain", "setting": "[5]", "value": "0.002-0.005%"}, {"measurement": "half-life in blood", "setting": "[6]", "value": "3 to 8", "unit": "min"}, {"measurement": "affinity of OT at V1aR", "setting": "[7]", "value": 78, "unit": "nM"}]}]}
